Consider two substances from US20110136727A1, “Compositions and methods for rapid selection of pathogen binding agents” (priority 2009, published 2011).

Where no end group is shown, it is not given here.

In one series the test system is E. coli O111:B4. Nature of the series: In vitro growth inhibition assay (turbidity at 600 nm). In kind it is cell-based. Particulars: added at mid-logarithmic phase, QF8 at 25 micrometers, NEG-1 at 100 micrometers, Construct 1 at 7, 10, and 25 micrometers, vs untreated bacteria. As to the method: FIG. 6. Bacterial growth inhibition assays in presence of (a) growth media; (b) negative control peptide NEG1 at 100 micromolar; (c) 25 micromolar peptide QF8 (SEQ ID NO: 33 Table 2); (d) 7 micrommolar QF8-PEG Construct 1; (e) 10 micromolar QF8-PEG Construct 1; (f) 17.5 micromolar QF8-PEG construct 1; (g) 25 micromolar QF8-PEG Construct 1; (h) 100 IU penicillin/streptomycin as a positive control.
In vitro growth inhibition assays. Growth of E. coli O111:B4 was assessed in the presence of different concentrations of NEG-1, QF8, and Construct 1 using turbidity at 600 nm. […]
In vitro inhibition assays. […] Growth was monitored as turbidity at 600 nm. Experiments were performed at 30 degrees Centigrade in microtiter plates with 100 microliters of culture using a Spectra Max Plus microtiter plate reader with Soft Max Pro Software (Molecular devices). The turbidity was measured every 5 minutes and the plate was shaken for 30 seconds before each measurement. Bacteria concentration was calculated according to the McFarland general method using the absorbance at 600 nm of a series of mixtures of 1% barium chloride and 1% sulfuric acid.

Series [1] can be described thus: Serum stability (serum incubation and western blot). In kind it is in vitro ADME, human. As to the method:
Serum stability of Construct 1. Over the last decade, there was a considerable interest in developing antimicrobial peptides as intravenously administered antibiotics. In this respect, a common criticism of peptide-based drugs has been their susceptibility to endogenous proteases. […] To test the in vitro stability of Construct 1 we used a serum-incubation and western blot analysis. Construct 1 was incubated in fresh human serum at 37° C. and pH=7.4 with a starting concentration of 10 μM. Samples were withdrawn at predetermined time points and each sample diluted 20-fold with loading buffer prior to analysis by western blot (FIG. 7).
(Immunoblotting shows a protein as a band on a membrane.)

Another series has as its system LPS. As to conditions: Morales et al., 2009; cited from earlier work.

With “Construct 1: tetravalent mPEG-maleimide (MW 20 kDa) conjugated with QF8 peptide (HRKPKFRHHHFKWKHWKGSC; also: conjugated with tetravalent 20 kDa mPEG-maleimide)”, the “Growth of E. coli O111:B4 (growth curves, bacterial count)” value in the series on E. coli O111:B4 was “dramatic decrease in bacterial count”. The “Time for which proteolysis was resisted” value in series [1] (fresh human serum, 37° C., pH=7.4, starting concentration 10 μM, western blot) is “more than 8 hours”. Also, the “Degradation in human serum, monomeric peptide vs tetravalent PEG scaffold” value in series [1] (human serum, western blot probed with Streptavidin-AlexaFluor 647 (FIG. 7)) is listed as “prolonged the half-life”.

“EFSNPTAQVFPDFWMSDGSC [NEG-1, negative control peptide, reference compound]”: the “Growth of E. coli O111:B4 (growth curves, bacterial count)” value with E. coli O111:B4 is given as “no changes”. For the same substance, the “Binding to the bacteria and to LPS” value in the series with LPS is listed as “bind neither to the bacteria nor to LPS”.
